“And” between values parts separate entries of the source, which are not always exact repeats. Identical values can stand only once. Like-named read-outs stand apart in the source and are kept apart here.

Series [1] is described as follows: Quantification of nifurtimox and metabolites in human urine (LC-HRMS). The format is in vivo. As to conditions: for AE,urine(0–24h), fasted patients: mean of 6 fasted patients with Chagas disease; for AE,urine(0–24h), fasted patients / AE,urine(0–24h), fed patients: single oral 120 mg nifurtimox; for AE,urine(0–24h), fed patients: mean of 6 fed patients with Chagas disease. On the procedure: Urine samples were collected from fasted and fed patients pre-dose (0 h) and at four post-dose intervals (0-4, 4-8, 8-12, and 12-24 h) and stored frozen until required. For analysis, urine samples were thawed at room temperature and homogenized by vortex mixing. […] Equal volumes (75 µL) of an internal standard solution of [^2H8]-nifurtimox dissolved in water (10 µg/mL) were added to each urine, calibration, or control sample and mixed thoroughly. Samples from 6 patients were then analyzed using liquid chromatography-high-resolution mass spectrometry (LC-HRMS) with a 1290 Infinity LC system equipped with a diode array detector and an Orbitrap Fusion™ Lumos™ Tribrid™ HRMS (Thermo Fisher Scientific, Bremen, Germany) with a heated electrospray ionization source. For quantification, the LC conditions were as described above for analysis of rat plasma, and the HRMS parameters were: mass range, 120-600 Da in full scan mode and all ion fragmentation in positive ionization mode; resolution, 240,000; ion source voltage, 3500 V; capillary temperature, 300°C; source temperature, 60°C.
The system was calibrated using the relative peak area as a function of concentration, which was obtained by linear regression. Quantification was performed on a mass basis (μg/mL), with the final calculation for the percentage of dose excreted in urine made on a molar basis to account for the substantial differences (up to ~2.5-fold) in the molecular masses of the compounds of interest. The analytical precision for all analytes was in the range of 1.1% to 4.4%, with an accuracy of 94% to 107%. All concentrations in μg/mL were back-calculated to nmol/mL, and these concentrations were then used to calculate a total molar amount based on the urine volume collected during each interval.

The test system of another series is CYP 2B6. Nature of the series: CYP induction (mRNA and CYP activity). The series is classed as in vitro ADME, human. The text has this:
(§1) The inhibition of cytochrome P450 (CYP) isoforms and a range of cellular transporters (except multidrug and toxin extrusion [MATE] proteins), as well as the induction of CYP isoforms were investigated using previously described methods.

For a further series, the system named is CYP 1A2. Nature of the series: CYP induction (mRNA and CYP activity). The series is classed as in vitro ADME, human.
Description: as §1

For series [2], the system named is CYP 3A4. Description: CYP induction (mRNA and CYP activity). The series is classed as in vitro ADME, human.
Description: as §1

In series [3] the target is CYP 3A4 (Homo sapiens, UniProt P08684). Nature of the series: CYP inhibition with probe substrates. The format is in vitro ADME.
Sequence of CYP 3A4 (Homo sapiens, UniProt P08684) (P08684 whole entry): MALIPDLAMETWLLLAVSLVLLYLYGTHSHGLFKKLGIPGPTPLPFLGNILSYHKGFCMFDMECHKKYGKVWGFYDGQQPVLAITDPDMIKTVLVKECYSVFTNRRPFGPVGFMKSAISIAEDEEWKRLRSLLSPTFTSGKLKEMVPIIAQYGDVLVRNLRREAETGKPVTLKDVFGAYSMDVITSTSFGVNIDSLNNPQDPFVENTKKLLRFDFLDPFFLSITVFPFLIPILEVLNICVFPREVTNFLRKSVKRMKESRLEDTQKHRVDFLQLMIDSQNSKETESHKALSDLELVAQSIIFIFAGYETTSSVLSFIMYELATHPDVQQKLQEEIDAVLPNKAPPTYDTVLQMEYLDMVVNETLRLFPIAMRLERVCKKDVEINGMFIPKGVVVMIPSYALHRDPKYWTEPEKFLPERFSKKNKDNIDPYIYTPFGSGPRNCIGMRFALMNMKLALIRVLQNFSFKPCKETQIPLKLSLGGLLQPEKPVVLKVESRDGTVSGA
Description: as §1

For the next series, the target named is T1, OAT1 (Homo sapiens, UniProt Q4U2R8).
T1 sequence (Q4U2R8 1-563): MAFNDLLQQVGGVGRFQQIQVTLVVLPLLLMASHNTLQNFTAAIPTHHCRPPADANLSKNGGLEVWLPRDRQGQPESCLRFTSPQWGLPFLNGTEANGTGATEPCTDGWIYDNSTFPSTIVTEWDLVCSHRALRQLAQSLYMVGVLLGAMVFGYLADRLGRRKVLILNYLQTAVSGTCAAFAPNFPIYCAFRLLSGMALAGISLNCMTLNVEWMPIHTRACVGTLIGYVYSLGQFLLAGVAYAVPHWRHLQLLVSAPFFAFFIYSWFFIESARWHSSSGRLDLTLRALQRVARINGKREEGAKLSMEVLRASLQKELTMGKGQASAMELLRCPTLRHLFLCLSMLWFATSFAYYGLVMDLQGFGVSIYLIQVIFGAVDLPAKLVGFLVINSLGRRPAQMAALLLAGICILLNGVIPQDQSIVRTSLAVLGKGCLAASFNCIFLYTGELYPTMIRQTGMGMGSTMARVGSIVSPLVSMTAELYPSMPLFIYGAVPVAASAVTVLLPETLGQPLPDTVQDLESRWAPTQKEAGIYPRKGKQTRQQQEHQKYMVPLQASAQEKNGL
Description: Uptake transporter inhibition. The series is classed as in vitro ADME. To be noted: probe substrate p-aminohippuric acid.
Description: as §1

A short description of series [4]: Unbound fraction (fu) in human plasma. The format is in vitro ADME.
A short description of series [5]: Quantification of nifurtimox and metabolites in human plasma (LC-HRMS), plasma PK. As to conditions: fed; for AUC(tlast-∞) (extrapolated proportion): pooled plasma of 6 patients, single oral 120 mg nifurtimox; for AUC, % of total quantified exposure: sum of AUC of nifurtimox and M-1 to M-6 = 100%, single oral 120 mg. The series is classed as in vivo. On the procedure:
Plasma samples from timepoints 0, 0.25, 0.5, 0.75, 1, 1.5, 2, 2.5, 3, 4, 6, 8, 12, 15, and 24 h from 6 patients were analyzed. Blood samples were collected into lithium heparinized tubes. Blood cells and plasma were then separated by centrifugation, and the plasma was stored frozen until needed. For the analysis, plasma samples were thawed at room temperature and homogenized by vortex mixing. Equal volumes of plasma from the six patients for each timepoint were combined to a pooled volume of 200 µL. To precipitate protein, a 3-fold volume of acetonitrile/0.5% formic acid (v/v in water) was added to each pooled sample which was thoroughly mixed and then centrifuged at 20,000 g. […] For all analytes, the analytical precision ranged from 0.1% to 8.8%, and the accuracy was 95% to 108%.

In the next series the target is P-gp (Homo sapiens, UniProt P08183). Nature of the series: Efflux transporter inhibition. The format is in vitro ADME.
Sequence of P-gp (P08183 whole entry): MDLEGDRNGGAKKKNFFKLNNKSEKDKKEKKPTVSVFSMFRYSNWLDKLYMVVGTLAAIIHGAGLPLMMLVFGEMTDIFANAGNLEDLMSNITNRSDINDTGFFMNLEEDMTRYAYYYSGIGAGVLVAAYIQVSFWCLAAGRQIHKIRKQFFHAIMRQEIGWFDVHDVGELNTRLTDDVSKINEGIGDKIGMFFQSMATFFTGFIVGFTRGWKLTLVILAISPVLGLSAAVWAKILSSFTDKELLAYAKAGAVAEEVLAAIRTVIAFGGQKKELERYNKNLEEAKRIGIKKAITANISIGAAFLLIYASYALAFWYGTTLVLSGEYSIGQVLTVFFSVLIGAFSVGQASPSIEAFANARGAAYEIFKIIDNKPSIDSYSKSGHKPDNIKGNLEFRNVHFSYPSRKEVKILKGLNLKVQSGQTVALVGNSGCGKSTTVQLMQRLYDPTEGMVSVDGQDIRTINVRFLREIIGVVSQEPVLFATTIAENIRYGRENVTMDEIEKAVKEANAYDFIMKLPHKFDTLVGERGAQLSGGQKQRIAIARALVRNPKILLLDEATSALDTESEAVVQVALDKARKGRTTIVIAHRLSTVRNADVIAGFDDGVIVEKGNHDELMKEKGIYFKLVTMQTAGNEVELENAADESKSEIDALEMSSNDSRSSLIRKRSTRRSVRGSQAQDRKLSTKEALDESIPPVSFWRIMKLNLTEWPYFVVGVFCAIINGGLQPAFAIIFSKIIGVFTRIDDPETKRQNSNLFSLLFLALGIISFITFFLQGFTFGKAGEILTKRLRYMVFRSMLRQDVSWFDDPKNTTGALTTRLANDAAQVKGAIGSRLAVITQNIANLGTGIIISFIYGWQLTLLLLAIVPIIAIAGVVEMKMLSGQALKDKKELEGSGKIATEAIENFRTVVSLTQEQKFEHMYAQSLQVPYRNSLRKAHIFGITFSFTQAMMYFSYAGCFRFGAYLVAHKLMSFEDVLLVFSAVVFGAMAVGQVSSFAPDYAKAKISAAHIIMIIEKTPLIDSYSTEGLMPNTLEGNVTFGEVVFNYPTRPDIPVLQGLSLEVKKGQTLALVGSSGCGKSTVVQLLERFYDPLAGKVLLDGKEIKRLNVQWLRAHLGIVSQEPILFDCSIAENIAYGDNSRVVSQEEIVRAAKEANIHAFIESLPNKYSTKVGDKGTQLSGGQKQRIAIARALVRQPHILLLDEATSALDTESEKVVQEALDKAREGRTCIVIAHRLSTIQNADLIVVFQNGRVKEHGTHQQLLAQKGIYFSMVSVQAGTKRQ
Description: as §1

For the next series, the target named is T2, BCRP (Homo sapiens, UniProt Q9UNQ0).
T2 sequence (Q9UNQ0 1-655): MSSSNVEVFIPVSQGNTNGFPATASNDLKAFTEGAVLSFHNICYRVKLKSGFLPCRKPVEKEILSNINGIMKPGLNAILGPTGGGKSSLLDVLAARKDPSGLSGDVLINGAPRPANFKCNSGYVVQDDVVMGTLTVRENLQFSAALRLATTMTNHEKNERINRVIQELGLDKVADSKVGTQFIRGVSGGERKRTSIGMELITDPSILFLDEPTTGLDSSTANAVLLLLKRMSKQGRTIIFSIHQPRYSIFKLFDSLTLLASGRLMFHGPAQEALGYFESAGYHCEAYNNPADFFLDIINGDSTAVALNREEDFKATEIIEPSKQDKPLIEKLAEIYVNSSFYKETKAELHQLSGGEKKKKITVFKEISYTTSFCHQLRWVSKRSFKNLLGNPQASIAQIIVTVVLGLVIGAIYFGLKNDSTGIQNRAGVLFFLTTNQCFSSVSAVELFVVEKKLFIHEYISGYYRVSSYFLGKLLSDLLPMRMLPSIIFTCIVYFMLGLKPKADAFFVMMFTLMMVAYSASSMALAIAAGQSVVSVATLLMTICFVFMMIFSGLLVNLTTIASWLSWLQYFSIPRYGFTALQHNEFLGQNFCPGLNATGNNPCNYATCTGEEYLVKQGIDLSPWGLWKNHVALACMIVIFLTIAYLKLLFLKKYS
Description: Efflux transporter inhibition. The format is in vitro ADME.
Description: as §1

The mark [6] stands for this setting: 3A4 (M), 30-min preincubation, probe substrate midazolam, read-out: Pre- IC50 (+ NADPH).
Setting [7] is: 3A4 (M), coincubation, probe substrate midazolam, read-out: Co- IC50.
Where [8] appears, read: 3A4 (M), probe substrate midazolam.
Where [9] appears, read: 3A4 (T), 30-min preincubation, probe substrate testosterone, read-out: Pre- IC50 (+ NADPH).
Where [10] appears, read: 3A4 (T), coincubation, probe substrate testosterone, read-out: Co- IC50.
Setting [11] is: 3A4 (T), probe substrate testosterone.
Where [12] appears, read: probe substrate digoxin, for M-4 the highest test concentration of 20 µM was not valid.

A word on the IC50: it is the midpoint of a concentration-inhibition curve. What is called fraction unbound is the share of the substance not bound to proteins or other matrix. With `CC1CS(=O)(=O)CCN1n1cc(SCC(N)C(=O)O)ccc1=O` (stereo not drawn) [M-4], the “AE,urine(0–24h), fasted patients” value in series [1] is 5.9 % of dose. In series [1], the “AE,urine(0–24h), fed patients” value is 12.3 % of dose. For the same compound, the “concentration up to which no induction (mRNA and CYP activity)” value (from here on “concentration up to which no induction”) with CYP 2B6, in the series with CYP 1A2 and in the series with CYP 3A4 [2] was “up to 80000 µg/L” in each case. Besides, the IC50 on CYP 3A4 [3] (setting [6]) was greater than 2e-05 M; at CYP 3A4 [3] (setting [7]), greater than 2e-05 M; at CYP 3A4 [3] (setting [9]), greater than 2e-05 M; at CYP 3A4 [3] (setting [10]) it was greater than 2e-05 M; against OAT1, greater than 5 µM; on P-gp (setting [12]) it was greater than 5 µM. The half-inhibitory concentration (IC50) against P-gp (probe substrate dipyridamole), against BCRP (probe substrate fluvastatin) and against BCRP (probe substrate topotecan) was greater than 20 µM each time. Moreover, the “TDI (time-dependent inhibition)” value at CYP 3A4 [3] (setting [8]) and on CYP 3A4 [3] (setting [11]) was “No” each time. For the same compound, in [4], the unbound share (fraction unbound) was 1. The “AUC(tlast-∞) (extrapolated proportion)” value in [5] is reported as 48.4%. For the same compound, in [5], the “AUC, % of total quantified exposure” value is 8.9% and 8.9^a %.

For the compound `CC1CS(=O)(=O)CCN1N` (stereo not drawn) [M-6], the “AE,urine(0–24h), fasted patients” value in series [1] is recorded as 13.7 % of dose. Further, the “AE,urine(0–24h), fed patients” value in series [1] is recorded as 20.8 % of dose. Besides, the “concentration up to which no induction” value in the series on CYP 2B6, with CYP 1A2 and in the series with CYP 3A4 [2] was “up to 90000 µg/L” throughout. In addition, the half-inhibitory concentration (IC50) on CYP 3A4 [3] (setting [6]) was greater than 0.0001 M; on CYP 3A4 [3] (setting [7]) it was greater than 0.0001 M; on CYP 3A4 [3] (setting [9]) it was greater than 0.0001 M; at CYP 3A4 [3] (setting [10]), greater than 0.0001 M; at OAT1 it was greater than 30 µM; at P-gp (setting [12]), greater than 200 µM. Further, the IC50 against P-gp (probe substrate dipyridamole), against BCRP (probe substrate fluvastatin) and against BCRP (probe substrate topotecan) was greater than 200 µM in each case. Besides, the “TDI (time-dependent inhibition)” value at CYP 3A4 [3] (setting [8]) and at CYP 3A4 [3] (setting [11]) was “No” throughout. The compound also yielded a free fraction (fraction unbound) in [4] of 1. Moreover, in [5], the “AUC(tlast-∞) (extrapolated proportion)” value is reported as 21.8%. The “AUC, % of total quantified exposure” value in series [5] was 69.4%.

Turning to `CC1CS(=O)(=O)CCN1/N=C/c1ccc([N+](=O)[O-])o1` (stereo not drawn) [Nifurtimox, (E)-N-(3-methyl-1,1-dioxo-1,4-thiazinan-4-yl)-1-(5-nitrofuran-2-yl) methanimine, reference compound], the “unchanged nifurtimox in urine, on average” value in series [1] (fed and fasted patients, single oral 120 mg) is “less than 0.1 % of the administered dose”. In addition, the “AE,urine(0–24h), fasted patients” value in [1] was 0.03 % of dose. Besides, the “AE,urine(0–24h), fed patients” value in series [1] was 0.07 % of dose. Also, the “concentration up to which no induction” value with CYP 2B6, in the series on CYP 1A2 and in the series on CYP 3A4 [2] was “up to 30000 µg/L” in each case. Besides, the IC50 at CYP 3A4 [3] (setting [6]) is 4.8e-05 to 4.9e-05 M; at CYP 3A4 [3] (setting [7]), greater than 5e-05 M; on CYP 3A4 [3] (setting [9]) it was greater than 5e-05 M; on CYP 3A4 [3] (setting [10]) it was greater than 5e-05 M; on OAT1, greater than 20 µM; against P-gp (setting [12]) it was greater than 100 µM. For the same compound, the IC50 on P-gp (probe substrate dipyridamole) and on BCRP (probe substrate topotecan) was greater than 100 µM throughout. For the same compound, the “TDI (time-dependent inhibition)” value on CYP 3A4 [3] (setting [8]) and on CYP 3A4 [3] (setting [11]) was “No” throughout. Moreover, in series [4], the unbound share (fraction unbound) was 0.576. In series [5], the “AUC(tlast-∞) (extrapolated proportion)” value was 0.6%. Besides, the “AUC, % of total quantified exposure” value in series [5] stood at 16.9%.

Values taken from publication PMC10661964 (Current Drug Metabolism, 2023).
